Where a name gives a salt, the structure may show the parent alone.
Key:
[1] = test system: benzodiazepine site of GABAA; test: Binding assay, benzodiazepine site of GABAA (binding assay 1: rat brain, (3H)-flunitrazepam; binding assay 2: bovine hippocampal membranes, [3H]-RY80); conditions: radioligand binding; for % Inhibition at 10 μM: 10 μM test compound; for % Inhibition at 0.1 μM: 0.1 μM test compound
Method in brief: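 Assay 1: rat whole-brain (minus cerebellum) membranes in Na–K phosphate pH 7.4, 1 nM (3H)-flunitrazepam, 60 min at 25° C., ± 30 μM GABA; nonspecific with 10 μM diazepam. Assay 2: bovine hippocampal membranes, 0.8 nM [3H]-RY80 in 50 mM Tris-Citrate pH 7.8/200 mM NaCl, 60 min at 0-4° C.; nonspecific with 0.5 μM L-655,708. Filtration read-out.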

[2] = test system: GABAA receptors; test: Electrophysiology assay, two-electrode voltage clamp in Xenopus oocytes expressing GABAA receptors; type: cell-based; conditions: GABA EC10, screening concentration of 10 μM, subunit combination not stated
Method: mRNA was prepared from lyophilized plasmid pellets containing cDNA inserts encoding the specific GABAA receptor subunit. cDNAs encoding the α2, α3, and γ3 subunits were subcloned into pBluescript, SK^−. cDNAs encoding the α1 and α5 subunits were subcloned into prC while cDNA encoding the β2 subunit was subcloned into pcDNA1. The cDNA construct encoding the γ2s subunit is in the pGH19 expression construct. Overnight cultures of transformed DH5a bacterial cells were performed to grow sufficient quantities for maxiprep isolation of the plasmid cDNA. The resulting plasmid cDNA was linearized by digestion with an appropriate restriction enzyme that cleaves distal to the cDNA insert (XbaI for α1,2, β2, and γ3 or NotI for α3,5 and γ2, respectively). Following digestion, plasmid cDNA was treated with proteinase K and extracted with phenol/chloroform/isoamyl alcohol, followed by ethanol precipitation. cDNA quality was assessed by agarose-gel electrophoresis (1.5% agarose gel). Samples were stored at −20° C. until use. In vitro transcription was performed with T7 RNA polymerase. mRNA was then stored at −80° C. until use. Plasmids were linearized with appropriate restriction enzymes before in vitro transcription using the Message Machine kit (Ambion, Austin, Tex.).
GABAA Receptor Expression in Xenopus oocytes.
GABAA receptor expression in Xenopus oocytes: Following 45 min of 0.15% Tricaine anesthesia, an ovarian section containing the follicular oocytes was removed from the frog through a lateral abdominal incision. Oocytes were immediately placed in a calcium-free solution (NaCl 96 mM, MgCl2 1 mM, KCl 2 mM, Hepes 50 mM, pyruvate 2.5 mM, gentamycin 100 μg/mL, penicillin-streptomycin 50 U/mL, pH 7.4). Following 1.5-2 hour incubation in 0.2% collagenase (type II, Sigma Chemical Co., St. Louis, Mo.) at room temperature, individual Dumont stage V and VI oocytes were transferred to an incubator and maintained overnight in Barth's solution (NaCl 84 mM, NaHCO3 2.4 mM, MgSO4 0.82 mM, KCl 1 mM, Ca(NO3)2 0.33 mM, CaCl2 0.41 mM, Tris/HCl 7.5 mM, pyruvate 2.5 mM, gentamycin 50 μg/mL, penicillin-streptomycin, 100 units/mL, pH 7.4) at 18-20° C. and used for experiments 1-5 days post-injection. Oocytes were injected solution using an electronic microinjector (Drummond, Broomall, Pa.) with 50 nL of RNA containing 0.3-0.5 ng of each subunit RNA in a 1:1:1 ratio. The injected oocytes were used for experiments after 1-5 days of incubation in Barth's solution at 18-20° C.
Measurements of ion currents from oocytes expressing GABAA receptors were performed using a Warner two-electrode voltage-clamp amplifier (Warner Instruments, Inc., Foster City, Calif.) (Park-Chung, M., et al. (1999) Brain Res. 830: 72-87 incorporated herein in its entirety). Microelectrodes were fabricated from borosilicate glass capillaries with a programmed pipette puller (Sutter Instrument Co., Calif.). Microelectrode resistance was 1-3 MΩ when filled with 3 M KCl. The oocyte recording chamber was continuously perfused with Ringer solution. Oocytes were clamped at a holding potential of −70 mV during data acquisition. The membrane current was filtered at 10 Hz and sampled at 100 Hz. Compounds were applied by a gravity-driven external perfusion system. The working volume of the recording chamber was 30 μL and the rate of the perfusion was approximately 50 μL/sec. Compound application was 10-20 sec followed by a 90 sec wash. Data acquisition and external perfusion was computer controlled by custom-developed software. All experiments were performed at room temperature (22-24° C.). Dose-response data from each oocyte were fitted to the Hill equation by non-linear regression using the equation: IGABA=Emax/(1+(EC50/c)^n^H)
Emax is the maximum response, EC50 is the concentration producing 50% of the maximal response, nH is the Hill coefficient and c is the concentration of agonist. […]

SMILES: CCCNC(=O)n1ncc2c3nn(-c4ccccc4)c(=O)c-3c[nH]c21 [Compound 6d, 3-oxo-2-phenyl-N-propyl-2,3-dihydrodipyrazolo[3,4-b:3′,4′-d]pyridine-6(5H)-carboxamide]
- % Inhibition at 10 μM [1]: A (A indicates % inhibition >80%)
- EP Modulation [2]: E (E indicates negative modulation <20%)

SMILES: CCNC(=S)n1ncc2c3nn(-c4ccccc4)c(=O)c-3c[nH]c21 [Compound 6ar, N-ethyl-3-oxo-2-phenyl-2,3-dihydrodipyrazolo[3,4-b:3′,4′-d]pyridine-6(5H)-carbothioamide]
- % Inhibition at 10 μM [1]: A (A indicates % inhibition >80%)
- EP Modulation [2]: E (E indicates negative modulation <20%)

SMILES: CCNC(=O)n1cc2[nH]cc3c(=O)n(-c4ccccc4)nc-3c2c1 [Compound 13b, N-Ethyl-3-oxo-2-phenyl-2,3-dihydropyrazolo[3,4-d]pyrrolo[3,4-b]pyridine-7(5H)-carboxamide]
- % Inhibition at 0.1 μM [1]: A (A indicates % inhibition >80%)
- % Inhibition at 10 μM [1]: A (A indicates % inhibition >80%)
- EP Modulation [2]: D (D indicates negative modulation >20%)

SMILES: CCNC(=O)n1ncc2c3nn(-c4ccc(C(C)C)cc4)c(=O)c-3c[nH]c21 [Compound 6z, N-ethyl-2-(4-isopropylphenyl)-3-oxo-2,3-dihydrodipyrazolo[3,4-b:3′,4′-d]pyridine-6(5H)-carboxamide. TFA]
- % Inhibition at 10 μM [1]: A (A indicates % inhibition >80%)
- EP Modulation [2]: E (E indicates negative modulation <20%)

SMILES: CCNC(=O)n1ncc2c3nn(-c4ccsc4)c(=O)c-3c[nH]c21 [Compound 6u, N-ethyl-3-oxo-2-(thiophen-3-yl)-2,3-dihydrodipyrazolo[3,4-b:3′,4′-d]pyridine-6(5H)-carboxamide]
- % Inhibition at 10 μM [1]: A (A indicates % inhibition >80%)
- EP Modulation [2]: D (D indicates negative modulation >20%)

SMILES: CCCNC(=O)n1cc2[nH]cc3c(=O)n(-c4ccccc4)nc-3c2c1 [Compound 13c, 3-Oxo-2-phenyl-N-propyl-2,3-dihydropyrazolo[3,4-d]pyrrolo[3,4-b]pyridine-7(5H)-carboxamide]
- % Inhibition at 0.1 μM [1]: A (A indicates % inhibition >80%)
- % Inhibition at 10 μM [1]: A (A indicates % inhibition >80%)
- EP Modulation [2]: D (D indicates negative modulation >20%)

SMILES: CCCCNC(=O)n1ncc2c3nn(-c4ccccc4)c(=O)c-3c[nH]c21 [Compound 6f, N-butyl-3-oxo-2-phenyl-2,3-dihydrodipyrazolo[3,4-b:3′,4′-d]pyridine-6(5H)-carboxamide.TFA]
- % Inhibition at 10 μM [1]: A (A indicates % inhibition >80%)
- EP Modulation [2]: D (D indicates negative modulation >20%)

SMILES: CCCCNC(=O)n1cc2[nH]cc3c(=O)n(-c4ccccc4)nc-3c2c1 [Compound 13i, N-Butyl-3-oxo-2-phenyl-2,3-dihydropyrazolo[3,4-d]pyrrolo[3,4-b]pyridine-7(5H)-carboxamide]
- % Inhibition at 0.1 μM [1]: A (A indicates % inhibition >80%)
- % Inhibition at 10 μM [1]: A (A indicates % inhibition >80%)
- EP Modulation [2]: E (E indicates negative modulation <20%)

SMILES: CCNC(=O)n1ncc2c3nn(-c4ccc(Br)cc4)c(=O)c-3c[nH]c21 [Compound 6w, 2-(4-bromophenyl)-N-ethyl-3-oxo-2,3-dihydrodipyrazolo[3,4-b:3′,4′-d]pyridine-6(5H)-carboxamide.TFA]
- % Inhibition at 10 μM [1]: A (A indicates % inhibition >80%)
- EP Modulation [2]: E (E indicates negative modulation <20%)

SMILES: CCNC(=S)n1ncc2c3nn(-c4ccc(Cl)cc4)c(=O)c-3c[nH]c21 [Compound 6as, 2-(4-chlorophenyl)-N-ethyl-3-oxo-2,3-dihydrodipyrazolo[3,4-b:3′,4′-d]pyridine-6(5H)-carbothioamide]
- % Inhibition at 10 μM [1]: A (A indicates % inhibition >80%)
- EP Modulation [2]: D (D indicates negative modulation >20%)

SMILES: CCNC(=O)n1cc2[nH]cc3c(=O)n(-c4ccccc4)nc-3c2n1 [Compound 21a]
- % Inhibition at 0.1 μM [1]: B (B indicates % inhibition <80% and >20%)
- % Inhibition at 10 μM [1]: C (C indicates % inhibition <20%)
- EP Modulation [2]: D (D indicates negative modulation >20%)

SMILES: CCNC(=O)n1ncc2c3nn(-c4ccccc4)c(=O)c-3c[nH]c21 [Compound 6b, N-ethyl-3-oxo-2-phenyl-2,3-dihydrodipyrazolo[3,4-b:3′,4′-d]pyridine-6(5H)-carboxamide]
- % Inhibition at 0.1 μM [1]: A (A indicates % inhibition >80%)
- % Inhibition at 10 μM [1]: A (A indicates % inhibition >80%)
- EP Modulation [2]: D (D indicates negative modulation >20%)

SMILES: CNC(=O)n1cc2[nH]cc3c(=O)n(-c4ccccc4)nc-3c2c1 [Compound 13a, N-Methyl-3-oxo-2-phenyl-2,3-dihydropyrazolo[3,4-d]pyrrolo[3,4-b]pyridine-7(5H)-carboxamide]
- % Inhibition at 0.1 μM [1]: A (A indicates % inhibition >80%)
- % Inhibition at 10 μM [1]: A (A indicates % inhibition >80%)
- EP Modulation [2]: D (D indicates negative modulation >20%)

SMILES: CCNC(=O)n1ncc2c3nn(-c4ccc(Cl)cc4)c(=O)c-3c[nH]c21 [Compound 6o]
- % Inhibition at 0.1 μM [1]: B (B indicates % inhibition <80% and >20%)
- % Inhibition at 10 μM [1]: A (A indicates % inhibition >80%)
- EP Modulation [2]: E (E indicates negative modulation <20%)
